Experiment in all cases: NCI-60 cell line screen, 48 h
Assay [1] deals with CAKI-1 renal.
The subject of assay [2] is M14 melanoma.
Assay [3] relates to OVCAR-8 ovarian.
Assay [4] has as its system SK-MEL-28 melanoma.
Assay [5] deals with TK-10 renal.
Assay [6] relates to HCC-2998 colon.
For assay [7], the system named is UACC-62 melanoma.
Assay [8] has as its system OVCAR-5 ovarian.
Assay [9] has as its system SF-539 CNS.
Assay [10] has as its system A498 renal.
Assay [11] relates to IGROV1 ovarian.
Assay [12] deals with M19-MEL melanoma.
In assay [13] the test system is SNB-75 CNS.
The subject of assay [14] is SK-OV-3 ovarian.
Assay [15] concerns MOLT-4 leukemia.
Assay [16] concerns HOP-92 NSCLC.
Assay [17] deals with EKVX NSCLC.
Assay [18] deals with NCI-H23 lung.

The results in this text go back to PubChem BioAssay (NCI).

Each structure is given as a SMILES string.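 Each compound was tested at five concentrations against cells in 96-well plates for 48 hours. TGI: total growth inhibition.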 A value given as a limit tells only on which side of the number the result lay.

As to `Oc1ccc(O)c(-n2cccn2)c1`, the TGI was 33.3 µM in assay [1]; over 100 µM in assay [2]; over 100 µM in [3]; over 100 µM in assay [4]; over 100 µM in assay [5]; over 100 µM in [6]. Also, the TGI in [7] was over 100 µM; in assay [8], over 100 µM; in [9] it was over 100 µM; in [10], over 100 µM; in assay [11] it was over 100 µM; in [12] it was 76.1 µM. Also, the TGI in assay [13] is over 100 µM; in [14], over 100 µM; in assay [15], 59.5 µM; in assay [16] it was 93.2 µM; in [17], over 100 µM; in assay [18], over 100 µM.

As for `O=CC1=CCCN(CCc2c[nH]c3ccccc23)C1`, the TGI worked out at 141 µM in assay [1]; 206 µM in [3]; 41.1 µM in assay [4]; 140 µM in [5]; 128 µM in assay [6]; 111 µM in assay [7]. The TGI is 126 µM in [8]; 108 µM in assay [9]; 176 µM in assay [11]; 152 µM in assay [12]; 224 µM in assay [14]; over 393 µM in [15]. In addition, the TGI amounted to 121 µM in assay [16], 202 µM in assay [17] and 101 µM in assay [18].

In the case of `NC1=C(O)/C(=N/NS(=O)(=O)c2ccccc2)C(c2ccc3c(c2)OCO3)O1` (configuration not stated), the TGI in assay [1], in [2], in [3], in assay [4], in [5] and in assay [6] was over 100 µM throughout. In addition, the TGI in [7] is over 100 µM; in assay [8] it was over 100 µM; in assay [9], over 100 µM; in [10] it was over 100 µM; in assay [11], over 100 µM; in [12], 83.4 µM. The TGI in assay [13], in assay [14], in [15], in assay [16], in assay [17] and in assay [18] was over 100 µM throughout.

Turning to `C=CCC1(CN(C)C)CC/C(=C\c2cc(OC)c(OC)c(OC)c2)C1=O` (configuration not stated), the TGI was over 100 µM in assay [1]; 38.4 µM in assay [2]; 54.6 µM in assay [3]; over 100 µM in [4]; 36.4 µM in assay [5]; 35.5 µM in assay [6]. Besides, the TGI was 43.1 µM in assay [7]; over 100 µM in assay [8]; 35 µM in assay [9]; 79 µM in [10]; 74.6 µM in assay [11]; over 100 µM in assay [12]. For the same compound, the TGI in assay [13] was over 100 µM; in assay [15], 78.8 µM; in [16] it was over 100 µM; in [17] it was 61.4 µM; in assay [18], over 100 µM.

For `Cc1ccc([N+](=O)[O-])cc1NC(=O)C(=O)Cc1nc2ccc(C(=O)c3ccccc3)cc2[nH]c1=O`, the TGI in [1], in assay [2], in [3], in [4], in [5] and in assay [6] was over 100 µM in each case. The TGI in [7], in [9], in assay [11], in assay [12], in assay [13] and in assay [14] was over 100 µM in each case. Besides, the TGI in assay [15], in [16], in assay [17] and in assay [18] was over 100 µM each time.

In the case of `O=C(NC1CCCCC1)NC12CC3CC(CC(F)(C3)C1)C2`, the TGI in assay [2], in [3], in assay [4], in assay [5], in [6] and in [7] was over 100 µM each time. The TGI in assay [8], in assay [9], in assay [10], in [11], in assay [12] and in assay [13] was over 100 µM each time. In addition, the TGI in assay [14], in assay [15], in assay [16], in assay [17] and in assay [18] was over 100 µM each time.

Regarding `OC(c1cc2ccccc2[nH]1)C(O)(c1cc2ccccc2[nH]1)c1cc2ccccc2[nH]1` (configuration not stated), the TGI in assay [1] was found to be 51.9 µM; in assay [3], 75 µM; in assay [4], 55.1 µM; in assay [5], 90.3 µM; in assay [6], 44.3 µM; in [7], 23.2 µM. For the same compound, the TGI was 102 µM in assay [8]; 88.7 µM in [9]; 47.9 µM in assay [11]; 23.1 µM in [12]; 79.1 µM in assay [14]; over 245 µM in assay [15]. Besides, the values for the TGI in assay [16], in [17] and in assay [18] were 50.1 µM, 60.9 µM and 21 µM, respectively.

For the compound `CSc1nc2nccnc2c(=O)[nH]1`, the TGI in [1], in assay [2], in assay [3], in assay [4], in assay [5] and in assay [6] was over 100 µM in each case. The TGI in [7], in assay [8], in [10], in [11], in assay [12] and in assay [13] was over 100 µM in each case. Moreover, the TGI in assay [14], in assay [15], in assay [16], in [17] and in assay [18] was over 100 µM each time.

With `COC1CC(O[C@H]2CC[C@@]3(C)C(=CCC4(O)C3CCC35C(=O)OC6(C)O[C@@]43CCC65)C2)OC(C)C1O` (some centres not stated), the TGI in assay [1], in assay [2], in assay [3], in assay [4], in [5] and in assay [6] was over 100 µM each time. Moreover, the TGI in [7], in assay [8], in [9], in assay [10], in assay [11] and in assay [12] was over 100 µM throughout. The TGI in assay [13], in assay [14], in assay [15], in [17] and in [18] was over 100 µM in each case.

Turning to `O=C(O)C(Cc1ccccc1)N=Cc1nc(-c2ccccc2)oc1O` (configuration not stated), the TGI in assay [1], in assay [2], in assay [3], in assay [4], in assay [5] and in assay [6] was over 100 µM each time. The TGI in assay [7], in [8], in assay [9], in [10], in assay [11] and in assay [12] was over 100 µM throughout. Besides, the TGI in assay [13], in [14], in assay [15], in assay [17] and in [18] was over 100 µM in each case.

`CC(C)(Oc1ccc2c(=O)cc(-c3ccc(Cl)cc3)oc2c1)C(=O)Nc1c(Cl)cccc1Cl`: the TGI in assay [1], in assay [2], in assay [3], in assay [4], in assay [5] and in [7] was over 100 µM each time. Also, the TGI in assay [8], in [9], in assay [10], in [11], in assay [12] and in assay [14] was over 100 µM each time. For the same compound, the TGI in [15], in assay [16], in assay [17] and in [18] was over 100 µM each time.

Turning to `CC1=C(C(=O)O)N2C(=O)[C@@H](NC(=O)C(c3ccccc3)N3CSC(=S)N(C(C)C)C3)C2SC1` (some centres not stated), the TGI in [1], in assay [2], in assay [3], in assay [4], in assay [5] and in [7] was over 100 µM in each case. The TGI in assay [8], in assay [9], in [10], in assay [11], in assay [12] and in assay [13] was over 100 µM throughout. In addition, the TGI in assay [14], in [15], in assay [16], in [17] and in assay [18] was over 100 µM throughout.

As for `CC(=O)NNc1ncc(C(=O)/C=C/c2ccccc2C)s1`, the TGI in assay [1], in assay [3], in [4], in assay [5], in assay [6] and in [7] was over 100 µM in each case. Also, the TGI in [8], in [9], in [10], in [11], in assay [12] and in assay [13] was over 100 µM each time. For the same compound, the TGI in assay [14], in [15], in [16], in [17] and in assay [18] was over 100 µM throughout.
